Usually IC50 stands for the midpoint of a concentration-inhibition curve.

Calls of active or inactive are those of the source.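 Rule for the calls: active = compound whose IC50 against bacterial viability is at or below 10 µM; inactive = IC50 above 10 µM.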

For this assay, the system named is E. coli V3065 growth, OD600 absorbance. The experiment in a line: E. coli V3065 growth inhibition, dose response, counter-screen for AddAB recombination inhibitor project, absorbance, OD600 (AID 504678). On the technique in general: The purpose of a counterscreen is to sort out artefacts and off-target activity.
With `N#Cc1c(NC(=O)c2ccc([N+](=O)[O-])o2)sc2c1CCC2`, the IC50 is > 119 µM (inactive). For `Cc1ccc2nc(/C(C#N)=C\c3ccc([N+](=O)[O-])o3)[nH]c2c1`, the IC50 was > 119 µM (inactive).

For the compound `CCn1cc(C(=O)O)c(=O)c2cnc(N3CCN(C(=S)Nc4ccccc4C(F)(F)F)CC3)nc21`, the IC50 is > 39.5 µM (inactive).

`O=C(NCc1cccnc1)c1ccc([N+](=O)[O-])o1`: the IC50 was > 39.5 µM (inactive). Consider `C=CCn1c(Sc2ncc([N+](=O)[O-])s2)n[nH]c1=O`, for which the IC50 is 20.4 µM (inactive). With `O=C(OCC(=O)c1cccs1)c1ccc([N+](=O)[O-])o1`, the IC50 was > 119 µM (inactive). As for `O=C(Nc1ncccn1)c1ccc([N+](=O)[O-])o1`, the IC50 is 33 µM (inactive). For the compound `Cc1cccnc1NC(=O)c1ccc([N+](=O)[O-])o1`, the IC50 is 39.5 µM (inactive). As for `CC(=O)Nc1ccc2nc(NC(=O)c3ccc([N+](=O)[O-])o3)sc2c1`, the IC50 is > 119 µM (inactive). In the case of `O=C(Nc1ccc(N2CCOCC2)cc1)c1ccc([N+](=O)[O-])o1`, the IC50 is 17.3 µM (inactive). The figure for `O=C(Nc1cccc(NC(=O)c2ccccc2Cl)c1)c1ccc([N+](=O)[O-])o1` is > 119 µM (inactive); for `NC(=O)c1ccsc1NC(=O)COC(=O)c1ccc([N+](=O)[O-])o1` it is > 119 µM (inactive).
